# Laboratory results from ChEMBL document CHEMBL1127975, “Balanced angiotensin II receptor antagonists. II.1,2 4-aminomethyl- and acylaminomethylimidazoles” (Bioorg Med Chem Lett, 1994).
# Tests used:
# [1] = molecular target: T1, Type-1 angiotensin II receptor (Homo sapiens, UniProt P30556); experiment: In vitro binding affinity of compound against Angiotensin II receptor, type 1
# T1 sequence (P30556 whole entry): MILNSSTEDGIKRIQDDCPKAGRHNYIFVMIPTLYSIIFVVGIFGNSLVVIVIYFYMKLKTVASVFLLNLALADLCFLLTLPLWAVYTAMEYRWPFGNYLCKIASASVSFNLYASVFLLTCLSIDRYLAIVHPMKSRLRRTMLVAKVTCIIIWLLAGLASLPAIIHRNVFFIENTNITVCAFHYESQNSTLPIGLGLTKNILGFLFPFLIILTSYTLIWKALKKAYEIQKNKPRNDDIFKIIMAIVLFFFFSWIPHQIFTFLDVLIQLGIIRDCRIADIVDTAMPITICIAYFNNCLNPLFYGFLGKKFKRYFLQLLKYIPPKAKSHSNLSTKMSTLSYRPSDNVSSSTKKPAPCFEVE
# [2] = molecular target: T2, Type-2 angiotensin II receptor (Homo sapiens, UniProt P50052); experiment: In vitro binding affinity of compound against angiotensin II AT-2 receptor
# T2 sequence (P50052 whole entry): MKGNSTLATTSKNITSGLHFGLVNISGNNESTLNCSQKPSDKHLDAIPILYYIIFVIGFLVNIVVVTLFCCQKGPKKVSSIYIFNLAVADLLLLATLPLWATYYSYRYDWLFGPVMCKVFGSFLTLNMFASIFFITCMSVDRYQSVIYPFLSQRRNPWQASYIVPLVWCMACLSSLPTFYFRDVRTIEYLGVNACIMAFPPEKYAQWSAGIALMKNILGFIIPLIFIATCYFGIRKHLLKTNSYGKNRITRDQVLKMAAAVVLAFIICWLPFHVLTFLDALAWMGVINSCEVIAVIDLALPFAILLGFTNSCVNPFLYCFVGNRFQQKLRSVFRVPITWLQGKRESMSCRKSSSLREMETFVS
# Rattus norvegicus [3] = experiment: Compound was tested for its antihypertensive activity after oral administration to renal hypertensive rats; type: functional
# Rattus norvegicus [4] = experiment: Compound was tested for its antihypertensive activity after intravenous administration to renal hypertensive rats; type: functional
SMILES,IC50 [1] [nM],IC50 [2] [nM],ED30 (Rattus norvegicus [3]) [mg/kg],ED30 (Rattus norvegicus [4]) [mg/kg]
CCCc1nc(CN(Cc2ccccc2)C(=O)OC(C)(C)C)c(C(=O)O)n1Cc1ccc(-c2ccccc2-c2nn[nH]n2)cc1,9,1000,,
CCCc1nc(CN2CCN(c3ccccn3)CC2)c(C(=O)O)n1Cc1ccc(-c2ccccc2S(=O)(=O)NC(=O)c2ccccc2)cc1,6,500,,
CCCc1nc(CN2CCN(C(=O)C3CC3)CC2)c(C(=O)O)n1Cc1ccc(-c2ccccc2-c2nnn[nH]2)cc1,10,6000,,
CCCc1nc(CNC(=O)OC(C)(C)C)c(C(=O)O)n1Cc1ccc(-c2ccccc2-c2nn[nH]n2)cc1,6,4000,,
CCCCOC(=O)NS(=O)(=O)c1ccccc1-c1ccc(Cn2c(CCC)nc(CN3CCN(c4ccccn4)CC3)c2C(=O)O)cc1,6,90,,
CCCc1nc(CN(Cc2ccccc2)C(=O)Nc2ccccc2)c(C(=O)O)n1Cc1ccc(-c2ccccc2-c2nnn[nH]2)cc1,2,300,,
CCCCc1nc(Cl)c(CO)n1Cc1ccc(-c2ccccc2-c2nnn[n-]2)cc1.[K+] [LOSARTAN POTASSIUM],,,0.59,0.78
CCCc1nc(CNC(=O)C(c2ccccc2)c2ccccc2)c(C(=O)O)n1Cc1ccc(-c2ccccc2-c2nn[nH]n2)cc1,10,600,,
CCCc1nc(CN(Cc2ccccc2)C(=O)c2ccccc2)c(C(=O)O)n1Cc1ccc(-c2ccccc2S(=O)(=O)NC(=O)OCC(C)C)cc1,8,100,,
CCCCN(Cc1nc(CCC)n(Cc2ccc(-c3ccccc3S(=O)(=O)NC(=O)CCC)cc2)c1C(=O)O)C(=O)CCC,2,90,1.65,0.18
CCCc1nc(CN(CC(=O)O)C(=O)C(c2ccccc2)c2ccccc2)c(C(=O)O)n1Cc1ccc(-c2ccccc2-c2nn[nH]n2)cc1,100,7000,,
CCCc1nc(CN2CCN(c3ccccc3)C[C@H]2C)c(C(=O)O)n1Cc1ccc(-c2ccccc2-c2nnn[nH]2)cc1,2,70,,
CCCCN(Cc1ccccc1)Cc1nc(CCC)n(Cc2ccc(-c3ccccc3-c3nnn[nH]3)cc2)c1C(=O)O,3,90,3,0.04
CCCCCN(CCCCC)Cc1nc(CCC)n(Cc2ccc(-c3ccccc3-c3nnn[nH]3)cc2)c1C(=O)O,2,200,,
CCCc1nc(CN(Cc2ccccc2)C(=O)Cc2ccccc2)c(C(=O)O)n1Cc1ccc(-c2ccccc2-c2nn[nH]n2)cc1,20,400,,
CCCc1nc(CN(Cc2ccccc2)C(=O)OCC(C)C)c(C(=O)O)n1Cc1ccc(-c2ccccc2-c2nn[nH]n2)cc1,20,800,,
CCCc1nc(CN2CCN(c3ccccc3)C[C@H]2Cc2ccccc2)c(C(=O)O)n1Cc1ccc(-c2ccccc2-c2nn[nH]n2)cc1,10,1000,,

# Now from value to molecule, other results behind:
IC50 [1] [nM],IC50 [2] [nM],SMILES,ED30 (Rattus norvegicus [3]) [mg/kg],ED30 (Rattus norvegicus [4]) [mg/kg]
10,1000,CCCc1nc(CN2CCN(C(=O)C(c3ccccc3)c3ccccc3)CC2)c(C(=O)O)n1Cc1ccc(-c2ccccc2-c2nn[nH]n2)cc1,,
20,500,CCc1nc(CN2CCN(c3ccccn3)CC2)c(C(=O)O)n1Cc1ccc(-c2ccccc2-c2nnn[nH]2)cc1,,
0.9,200,CCCc1nc(CN2CCN(c3ccccn3)CC2)c(C(=O)O)n1Cc1ccc(-c2ccccc2-c2nn[nH]n2)cc1F,,
2,700,CCCCc1nc(CN2CCN(c3ccccn3)CC2)c(C(=O)O)n1Cc1ccc(-c2ccccc2-c2nn[nH]n2)cc1,,
4.2,60,CCCc1nc(CN2CCN(c3ccccn3)CC2)c(C(=O)O)n1Cc1ccc(-c2ccccc2-c2nn[nH]n2)cc1,> 3,0.003
2,400,CCCc1nc(CN2CCC(c3ccccc3)CC2)c(C(=O)O)n1Cc1ccc(-c2ccccc2-c2nn[nH]n2)cc1,,
6,20,CCCCCC(=O)NS(=O)(=O)c1ccccc1-c1ccc(Cn2c(CCC)nc(CN3CCN(c4ccccn4)CC3)c2C(=O)O)cc1,> 10,0.13
2,3000,CCCc1nc(CN2CCN(c3ccccc3OC)CC2)c(C(=O)O)n1Cc1ccc(-c2ccccc2-c2nnn[nH]2)cc1,,
2,600,CCCc1nc(CN2CCN(c3ccccc3Cl)CC2)c(C(=O)O)n1Cc1ccc(-c2ccccc2-c2nnn[nH]2)cc1,,
2,700,CCCc1nc(C(=O)N2CCN(c3ccccn3)CC2)c(C(=O)O)n1Cc1ccc(-c2ccccc2-c2nnn[nH]2)cc1,~3,0.018
2,80,CCCc1nc(CN2CCN(c3ncccn3)CC2)c(C(=O)O)n1Cc1ccc(-c2ccccc2-c2nn[nH]n2)cc1,,
10,> 10000,CCCc1nc(CN2CCN(c3ccccn3)CC2)c(CO)n1Cc1ccc(-c2ccccc2-c2nn[nH]n2)cc1,,
5,50,CCCc1nc(CN2CCN(c3ccccc3)CC2)c(C(=O)O)n1Cc1ccc(-c2ccccc2-c2nnn[nH]2)cc1,> 3,0.004
5,> 10000,CCCc1nc(CN2CCN(C(=O)c3ccccc3)CC2)c(C(=O)O)n1Cc1ccc(-c2ccccc2-c2nnn[nH]2)cc1,,
3,80,CCCc1nc(CN2CCN(c3ccc(F)cc3)CC2)c(C(=O)O)n1Cc1ccc(-c2ccccc2-c2nn[nH]n2)cc1,,
2,1000,CCCc1nc(CN2CCN(c3ccccn3)CC2)c(C=O)n1Cc1ccc(-c2ccccc2-c2nn[nH]n2)cc1,,
10,600,CCCc1nc(CN2CCN(c3ccccn3)CC2)c(C(=O)O)n1Cc1ccc(-c2ccccc2S(=O)(=O)NC(=O)C2CC2)cc1,,
